Like-named read-outs stand apart in the source and are kept apart here.

A short description of series [1]: Plasma pharmacokinetics after a single dose of liquid or solid oat product (compartmental PK model). The series is classed as in vivo, humans. Details: V/F: unit not given here. To be noted: for Cmax / half-life / k el / Tmax: both sexes, oral; for Cmax / half-life / k el: human, plasma; for Cmax / half-life / k el / Tmax / T1/2 / ka / V/F / AUC(norm): single dose; for k el: elimination rate (Table 2), read-out: ke (converted); for Tmax: human plasma, derived from PK model; for V, population estimate (RSE%) / ka, population estimate (RSE%) / ke, population estimate (RSE%): Table S1 compartmental model; for ka: absorption rate (Table 2); for V/F: distribution volume over bioavailability; for AUC(norm): normalized for nmol intake. The source says:
A non-blinded, randomized two-way crossover study with two different oat products (solid or liquid) was designed to investigate the AVA and AVE PK after a single dose and after repeated dosing at three different doses, for respective food (Fig. 2). Since this is the first study of its kind, it is impossible to make any formal calculation of the number of subjects needed to show meaningful differences in plasma biomarker concentrations, since the variation is unknown. However, similar studies aimed for BFI discovery and validation of dose-response have typically used 5–30 subjects. We therefore considered 23 individuals as a good compromise between feasibility and possibilities to assess variation in biomarker concentrations, estimate pharmacokinetic parameters, dose response and performing modelling with good precision. A scientist not involved in the study, conducted the randomization using the RAR method (RandomizeR package) in R software environment and provided lists with allocated treatment sequences. The study was conducted in two phases. In the first phase, blood samples were drawn from 11 men and 12 women for 24 h after consumption of a single dose of either a solid or a liquid oat product on-site. Breakfast and lunch were also provided on-site. A single dose of solid (62 g of oat flakes) or liquid (196 mL of oat drink) containing individual AVAs and AVEs shown in Table 1 were consumed, respectively. Blood plasma samples were drawn for 24 h (0 h, 0.25 h, 0.5 h, 0.75 h, 1 h, 1.5 h, 2 h, 3 h, 4 h, 5 h, 6 h, 7 h, 8 h, 24 h). After the 24 h, at the second phase of the study, the corresponding product was further consumed three times per day for four days at either a low, medium, or high intake dose (98, 196 and 392 mL for liquid oats and 31, 62 and 123 g for oat flakes with corresponding contents of AVAs and AVEs (Table 1) in a Latin square design. Therefore, a total number of 8 participants (2 males and 6 females) were randomized to the low dose, 9 participants (3 males and 6 females) for medium dose and 6 participants (3males and 3 females) for the high dose. Participants consumed the provided products at home and were instructed to follow their habitual diets with restriction on the consumption of oat products. A list of relevant foods was provided as a guide. The oat flakes were pre-portioned into individual bags and could be consumed without heating, mixed with yoghurt, cottage cheese, sour milk or any liquid. Participants were instructed to consume the full amount, including the liquid or food the oats were mixed with. Liquid oat products were weighed prior consumption, and they were to be consumed without any additional food. In all cases the time of oat intake was recorded in a food journal. On the fifth day of phase II, a fasting sample was drawn. Fecal samples were collected at baseline and at the end of phase II of the intervention. Between each study period, there was a wash-out period of eight days where participants consumed their habitual diet. After the washout, participants started with a single dose and repeated dosing for the other product in the same way as for the first. The participants were instructed to avoid foods containing oats during the last three days prior to the start of the study and during the last three days of the wash-out period. Compliance was assessed based on information provided in a compliance journal during the study weeks as well as through 2-day food records. The oat products used in the study were provided to the participants. The flakes for the single dose were consumed with water ad lib and for the repeated dose they could be mixed with water, yoghurt, milk, sour milk or cottage cheese with the condition that all the amount of the oat product is consumed. The oat drink was consumed without any other product.
All blood samples were collected into EDTA-coated tubes by a trained nurse. […]

In series [2] the test system is Feacalibacterium prausnitzii. Kind of series: Association of F. prausnitzii relative abundance at baseline with Cmax and AUC strata (logistic regression). The note with it: liquid, solid, or combined; single dose phase I. Details: species or system humans. Here is the method: DNA was extracted from approximately 35 mg of each of the 451 fecal samples using the NucleoSpin Soil kit (Macherey-Nagel, 740780.250 M), following the manufacturer’s instructions. DNA yield was quantified using the Qubit 1X dsDNA Broad Range assay kit (Thermo Fisher Scientific, Q33266). For metagenomic shotgun sequencing, libraries were prepared with the MGIEasy Fast FS DNA Library Prep Set (MGI Tech Co., Ltd., 940-000030-00, Werheim, Germany), using 400 ng of DNA per sample. The library preparation process included DNA shearing for 12.5 min, followed by end repair, A-tailing, and magnetic bead-based cleanup. Adapter ligation and cleanup were then performed, followed by PCR amplification and magnetic bead-based size selection of the final library product. Library quality was assessed using the Qubit 1X dsDNA HS Assay Kit (Thermo Fisher Scientific, Q33231) and the Agilent High Sensitivity D1000 Assay Kit (Agilent Technologies, 5067–5584 and 5067–5585, Santa Clara, CA, USA). Pooled libraries were circularized, barcoded, and used as templates for DNA nanoball preparation. The nanoballs were then analyzed on the DNBSEQ-T7 platform (MGI Tech Co., Ltd.) using the DNBSEQ-T7RS High-throughput Sequencing Set (FCL PE150), according to the manufacturer’s guidelines.
Raw metagenomic reads underwent quality control to remove low-quality sequences, adapters, and contaminants using Fastp (version 0.23.2, default parameters). High-quality reads were filtered to exclude human reads (GRCh38_noalt_as) using Bowtie2 [38] (version 2.5.3). The quality-filtered reads were then aligned to the taxonomy database using MetaPhlAn (version 4.0.6, default parameters) to generate relative abundance profiles. For inclusion in the analysis, a species was required to be present in at least three samples.
For the seven metabolites AVE A, AVE B, AVA 2c, AVA 2f, AVA 2fd, AVA 2p, AVA 2pd analysed at phase I after the single dose of oat products, Cmax and area under the curve (AUC) were stratified based on less than the median or more or equal to the […]. Thereafter, for each metabolite, it was investigated whether the relative abundance of F. prausnitzii at baseline could predict the strata since this bacterium has previously been reported to be responsible for production of their dihydro-metabolites. Logistic regression with a binomial distribution and a logistic link function was used to separately analyze the liquid and solid products. When analyzing liquid and solid products together, a generalized linear mixed model with a binomial distribution and a logistic link function was used, with identity included as a random factor.

The mark [3] stands for this setting: 62 g of oat flakes, solid oat product (62 g oat flakes).
Setting [4] is: 196 mL of oat drink, liquid oat product (196 mL oat drink).

With `COc1cc(/C=C/C=C/C(=O)Nc2ccc(O)cc2C(=O)O)ccc1O` [AVA 2fd], in series [1] (62 g of oat flakes, solid), the maximum concentration (Cmax) – broadly, the highest concentration seen after dosing – amounted to 7.34 ± 0.78 nM; the half-life (as a rule, the time needed for the level to fall by half in the phase considered) was 1.65 ± 0.13 h; the k el was 0.000117 s⁻¹. In addition, in series [1] (196 mL of oat drink, liquid), the highest level (Cmax) was 2.46 ± 0.25 nM, the half-life is 1.3 h and the k el is 0.000144 s⁻¹. Besides, in series [1] (setting [3]), the time of peak concentration (Tmax) – broadly, the time from dosing to the highest level – worked out at 1.53 ± 0.07 h. Besides, the time to peak (Tmax) in series [1] (setting [4]) worked out at 1.01 ± 0.04 h. Moreover, in series [1] (liquid), the “V, population estimate (RSE%)” value is reported as 210 (13) L; the “ka, population estimate (RSE%)” value is 3.6 (10) 1/h; the “ke, population estimate (RSE%)” value is 0.52 (14) 1/h; the T1/2 is 1.33 ± 0.10 h. Further, in series [1] (liquid), the ka is 3.6 ± 0.2^1 1/h and the V/F was 211 ± 21^2. In series [1] (solid), the “V, population estimate (RSE%)” value is recorded as 320 (22) L; the “ka, population estimate (RSE%)” value is on record as 2.2 (10) 1/h; the “ke, population estimate (RSE%)” value was 0.42 (17) 1/h; the ka is 2.2 ± 0.12 h⁻¹. In series [1] (solid), the V/F stood at 314 ± 32. Moreover, the “association between F. prausnitzii abundance at baseline and Cmax and AUC” value in series [2] is reported as “no significant associations”.
On to `O=C(/C=C/C=C/c1ccc(O)cc1)Nc1ccc(O)cc1C(=O)O` [AVA 2pd], for which, in series [1] (62 g of oat flakes, solid), the concentration peaked (Cmax) at 16.8 ± 1.78 nM, the half-life is 2.63 ± 0.2 h and the k el was 7.22e-05 s⁻¹. In series [1] (196 mL of oat drink, liquid), the peak level (Cmax) was 3.1 ± 0.31 nM, the half-life was 2.5 h and the k el is 7.78e-05 s⁻¹. Besides, the Tmax in series [1] (setting [3]) was determined as 2.31 ± 0.1 h. The time to peak (Tmax) in series [1] (setting [4]) amounted to 1.6 ± 0.07 h. Moreover, in series [1] (liquid), the “V, population estimate (RSE%)” value was 130 (16) L; the “ka, population estimate (RSE%)” value is given as 2.4 (9) 1/h; the “ke, population estimate (RSE%)” value is listed as 0.30 (13) 1/h; the T1/2 is on record as 2.45 ± 0.19 h. Besides, in series [1] (liquid), the ka is 2.40 ± 0.1^1 1/h and the V/F is given as 131 ± 13^2. In addition, in series [1] (solid), the “V, population estimate (RSE%)” value is listed as 190 (22) L; the “ka, population estimate (RSE%)” value is reported as 1.5 (10) 1/h; the “ke, population estimate (RSE%)” value is 0.27 (17) 1/h; the ka turned out to be 1.48 ± 0.10 h⁻¹. This compound had a V/F in series [1] (solid) of 189 ± 19. Besides, the “association between F. prausnitzii abundance at baseline and Cmax and AUC” value in series [2] is reported as “no significant associations”.
With `CC1OC(OC2C(OC3CCC4(C)C(=CCC5C4CCC4(C)C5CC5OC6(CCC(C)(COC7OC(CO)C(O)C(O)C7O)O6)C(C)C54)C3)OC(CO)C(OC3OC(CO)C(O)C(O)C3O)C2O)C(O)C(O)C1O` (centres unmarked) [AVE A, Avenacoside A], in series [1] (62 g of oat flakes, solid), the highest level (Cmax) was 2.03 ± 0.22 nM, the half-life was 3.32 ± 0.26 h and the k el was 5.83e-05 s⁻¹. In addition, in series [1] (196 mL of oat drink, liquid), the concentration peaked (Cmax) at 1.31 ± 0.14 nM, the half-life was 3.2 h and the k el is 6.39e-05 s⁻¹. For the same compound, the time of peak concentration (Tmax) in series [1] (setting [3]) stood at 1.78 ± 0.08 h. Also, in series [1] (setting [4]), the time of peak concentration (Tmax) was determined as 2.51 ± 0.11 h. For the same compound, in series [1] (liquid), the “V, population estimate (RSE%)” value is listed as 5900 (3) L; the “ka, population estimate (RSE%)” value is 1.4 (3) 1/h; the “ke, population estimate (RSE%)” value is recorded as 0.21 (10) 1/h; the T1/2 came to 3.17 ± 0.24 h. In series [1] (liquid), the ka was 1.4 ± 0.1^1 1/h and the V/F is 6718 ± 686^2. Further, in series [1] (solid), the “V, population estimate (RSE%)” value was 9700 (2) L; the “ka, population estimate (RSE%)” value was 2.7 (8) 1/h; the “ke, population estimate (RSE%)” value is given as 0.22 (6) 1/h; the ka came to 2.3 ± 0.13 h⁻¹. Also, the V/F in series [1] (solid) is 11,055 ± 1130.
Regarding `CC1OC(OC2C(OC3CCC4(C)C(=CCC5C4CCC4(C)C5CC5OC6(CCC(C)(COC7OC(CO)C(O)C(O)C7O)O6)C(C)C54)C3)OC(CO)C(OC3OC(CO)C(O)C(OC4OC(CO)C(O)C(O)C4O)C3O)C2O)C(O)C(O)C1O` (centres unmarked) [AVE B, Avenacoside B], in series [1] (62 g of oat flakes, solid), the Cmax was determined as 0.64 ± 0.07 nM, the half-life is 3.76 ± 0.29 h and the k el was 5e-05 s⁻¹. Moreover, in series [1] (196 mL of oat drink, liquid), the concentration peaked (Cmax) at 0.44 ± 0.05 nM, the half-life was 2.5 h and the k el is 7.5e-05 s⁻¹. In addition, the time to peak (Tmax) in series [1] (setting [3]) worked out at 3.29 ± 0.14 h. For the same compound, the time of peak concentration (Tmax) in series [1] (setting [4]) was determined as 2.98 ± 0.13 h. In series [1] (liquid), the “V, population estimate (RSE%)” value is reported as 2200 (3) L; the “ka, population estimate (RSE%)” value is given as 0.41 (9) 1/h; the “ke, population estimate (RSE%)” value is on record as 0.27 (3) 1/h; the T1/2 is 2.56 ± 0.20^2 h. Further, in series [1] (liquid), the ka was 0.41 ± 0.02 h⁻¹, the V/F turned out to be 2079 ± 212 and the “AUC(norm)” value amounted to 1.8 ± 0.2 nM·h. Further, in series [1] (solid), the “V, population estimate (RSE%)” value was 2600 (21) L; the “ka, population estimate (RSE%)” value is recorded as 0.45 (22) 1/h; the “ke, population estimate (RSE%)” value is 0.19 (20) 1/h; the ka was found to be 0.46 ± 0.03 h⁻¹. Also, in series [1] (solid), the V/F worked out at 2606 ± 266 and the “AUC(norm)” value turned out to be 2.1 ± 0.3 nM·h.

The values are drawn from PMC12418703, “Avenanthramides and avenacosides as biomarkers of oat intake: a pharmacokinetic study of solid and liquid oat consumption under single and repeated dose conditions” (Nutrition Journal, 2025).
